In assay [1] the test system is EcR1: Penicillinase-Producing Escherichia coli without Associated Resistance. The experiment in a line: Antibiogram, MIC by the VITEK 2 system. The class given is cell-based. As to conditions: Table A1, category from MIC. How it is done: (§1) 5. Identification and Antibiogram 5.1 EcR1: Penicillinase-Producing Escherichia coli without Associated Resistance
(§2) The bacterial and antibiogram identification is carried out by the VITEK 2 system (bioMérieux) and by the disk diffusion technique.

The test system is the same in assay [2]. Description: Antibiogram by the disk diffusion technique. The format is cell-based. As to conditions: for Results (diameter): Table A1, category from diameter vs Dmin Dmax. How it is done: as §1, §2
Assay [3] concerns Escherichia coli strain ATCC 25922 (wild type). The experiment in a line: Chessboard technique: MICs alone and synergism of Cx1 combinations. As to conditions: antibiotic used alone; second figure of the cell; n = 4. The format is cell-based. An excerpt: (§3) Three reference strains were used, corresponding to those studied for the MICs and MBCs (Minimum Bactericidal Concentration): Escherichia coli ATCC 25922, Staphylococcus aureus ATCC 29213, Pseudomonas aeruginosa ATCC 27853. For each of these strains 3 corresponding clinical isolates were chosen, having various antibiotic-resistance profiles, routinely used in standard fashion: • EcR1, EcR2, EcR3; • SaR1, SaR3, SaR4; • PaR2, PaR3, PaR5.
(§4) 1.3. Procedure: Chessboard Technique
(§5) The bacterial suspension is transferred to a 15 mL Falcon tube, centrifuged for 10 min at 4500 g, then the pellet is re-suspended in 1 mL of sterile distilled water. Suitable dilutions are then prepared in order to obtain a bacterial inoculum between 5·10^5 and 5·10^6 CFU/mL.
(§6) The MICs of the antibiotics were previously determined for each strain, by the method of microdilution in a liquid medium (CLSI (Clinical and Laboratory Standards Institute), 2003).
(§7) The same procedure is followed for the Cx1. […] Thus 64 ATB/Cx1 combinations are obtained.
(§8) The final volume contained in each of the wells must be 100 μL. Two controls must be present on each plate: • column 1 and 12: medium control • column 2 and 11: medium+bacteria control
(§9) Cx1: […] in the wells of […], starting with the lowest concentration.
(§10) ATB: 25 μL in the wells of rows H to A (columns 3 to 11), starting with the lowest concentration.
(§11) 50 μL in each of the wells of columns 2 to 11.
(§12) D2: Reading the Turbidity at 540 Nm.
(§13) The FIC (Fractional Inhibitory Concentration Index) value is determined by the following formula:
(§14) [formula] MICA in combination MICA alone MICB in combination MICB alone
(§15) When FIC≦0.5, there is a synergistic effect between antibiotic A and antibiotic B.
(§16) When 0.5<FIC≦1, there is an additive effect between antibiotic A and antibiotic B.
(§17) When 1<FIC≦4, there is an indifferent effect between antibiotic A and antibiotic B.
(§18) When FIC>4, there is an antagonistic effect between antibiotic A and antibiotic B.
(§19) For each strain and each antibiotic/Cx1 combination, the experiments were repeated a minimum of 3 times.

Assay [4] concerns cephalosporinase-hyperproducing strain of Escherichia coli (EcR2). The assay is described as above. The format is cell-based. As to conditions: antibiotic used alone; second figure of the cell; n = 4.
From the text: as §3, §4, §5, §6, §7, §8, §9, §10, §11, §12, §13, §14, §15, §16, §17, §18, §19

Assay [5] deals with EcR2: Cephalosporinase-Hyperproducing Escherichia coli. Description: Antibiogram by the disk diffusion technique. The class given is cell-based. The conditions noted are these: Table B2; strain EcR2; diameters. The protocol:
5.2 EcR2: Cephalosporinase-Hyperproducing Escherichia coli Having an Associated Resistance to the Aminoglycosides, Quinolones and the Trimethoprim-Sulphamethoxazole Combination
The bacterial and antibiogram identification is carried out by the VITEK 1 system (bioMérieux) and by the disk diffusion technique
(In general: In agar diffusion tests the substance spreads into inoculated agar from a disc or well.)

The test system of assay [6] is ESBL-producing strain of Escherichia coli (EcR3). Description: Chessboard technique: MICs alone and synergism of Cx1 combinations. The class given is cell-based. The conditions noted are these: antibiotic used alone; second figure of the cell; n = 4.
From the text: as §3, §4, §5, §6, §7, §8, §9, §10, §11, §12, §13, §14, §15, §16, §17, §18, §19

For assay [7], the system named is Pseudomonas aeruginosa strain having a resistance to β-lactams, the trimethoprim-sulphamethoxazole combination and fosfomycin (PaR2). The class given is cell-based. The conditions noted are these: antibiotic used alone; second figure of the cell; n = 4.
From the text: as §3, §4, §5, §6, §7, §8, §9, §10, §11, §12, §13, §14, §15, §16, §17, §18, §19

For assay [8], the system named is Escherichia coli, Staphylococcus aureus and Pseudomonas aeruginosa strains. Description: Chessboard technique, summary over all strains and combinations tested. The format is cell-based.
From the text: as §3, §4
The FIC (Fractional Inhibitory Concentration Index) value is determined by the following formula: […]
as §19

In assay [9] the test system is Pseudomonas aeruginosa strain having a resistance to β-lactams (including the carbapenems), aminoglycosides, the trimethoprim-sulphamethoxazole combination and …. The experiment in a line: Chessboard technique: MICs alone and synergism of Cx1 combinations. The format is cell-based. As to conditions: antibiotic used alone; second figure of the cell; n = 4.
From the text: as §3, §4, §5, §6, §7, §8, §9, §10, §11, §12, §13, §14, §15, §16, §17, §18, §19

Assay [10] deals with Pseudomonas aeruginosa strain ATCC 27853 (wild type). Described as above. As to conditions: antibiotic used alone; second figure of the cell; n = 4. The format is cell-based.
From the text: as §3, §4, §5, §6, §7, §8, §9, §10, §11, §12, §13, §14, §15, §16, §17, §18, §19

The test system of assay [11] is mucoid strain of Pseudomonas aeruginosa having a resistance to rifampicin and the trimethoprim-sulphamethoxazole combination (PaR5). Described as above. The class given is cell-based. The conditions noted are these: antibiotic used alone; second figure of the cell; n = 4.
From the text: as §3, §4, §5, §6, §7, §8, §9, §10, §11, §12, §13, §14, §15, §16, §17, §18, §19

The subject of assay [12] is MRSA strain without associated resistance (SaR1). Described as above. The class given is cell-based, Staphylococcus aureus. The conditions noted are these: antibiotic used alone; second figure of the cell; n = 4.
From the text: as §3, §4, §5, §6, §7, §8, §9, §10, §11, §12, §13, §14, §15, §16, §17, §18, §19

The subject of assay [13] is MRSA strain having a resistance to the aminoglycosides and fluoroquinolones (SaR3). The description is as above. The class given is cell-based, Staphylococcus aureus. The conditions noted are these: antibiotic used alone; second figure of the cell; n = 4.
From the text: as §3, §4, §5, §6, §7, §8, §9, §10, §11, §12, §13, §14, §15, §16, §17, §18, §19

Assay [14] relates to MRSA strain having a resistance to the aminoglycosides, fluoroquinolones, macrolides-lincosamides-synergistins and ofloxacin (SaR4). The assay is described as above. The format is cell-based, Staphylococcus aureus. The conditions noted are these: antibiotic used alone; second figure of the cell; n = 4.
From the text: as §3, §4, §5, §6, §7, §8, §9, §10, §11, §12, §13, §14, §15, §16, §17, §18, §19

For assay [15], the system named is Staphylococcus aureus strain ATCC 29213 (wild type). The description is as above. The format is cell-based. The conditions noted are these: antibiotic used alone; second figure of the cell; n = 4.
From the text: as §3, §4, §5, §6, §7, §8, §9, §10, §11, §12, §13, §14, §15, §16, §17, §18, §19

Assay [16] deals with SaR3: Meticillin-Resistant Staphylococcus aureus. The experiment in a line: Antibiogram by the disk diffusion technique. The class given is cell-based. The conditions noted are these: Table E1; strain SaR3.
The test system of assay [17] is SaR1: Meticillin-Resistant Staphylococcus aureus without Associated Resistance. The experiment in a line: Antibiogram by the VITEK 2 system. The format is cell-based. As to conditions: Table D1; strain SaR1. How it is done:
5.4 SaR1: Meticillin-Resistant Staphylococcus aureus without Associated Resistance
The bacterial and antibiogram identification is carried out by the VITEK 2 system (bioMérieux)
February 2006: Detection of the gene mecA by the PCR technique: POSITIVE Expert finding July 2006: totally typical phenotype: modification of the PLPs The fluctuations relative to the type of associated resistance for certain strains between Tables D1 and D2 are due to the development of the French (CA-SFM), European (EUCAST) and American (CLSI) recommendations for the categorization of bacterial strains. 5.5 SaR3: Meticillin-Resistant Staphylococcus aureus Having an Associated Resistance to the Aminoglycosides and Fluoroquinolones The bacterial and antibiogram identification is carried out by the VITEK 2 system (bioMérieux) and by the disk diffusion technique

Structures are written as SMILES.

Turning to `CC1(C)S[C@@H]2[C@H](NC(=O)[C@H](N)c3ccc(O)cc3)C(=O)N2[C@H]1C(=O)O` [Amoxicillin], the “Results (MIC)” value in assay [1] was “Resistant”. Besides, the “Results (diameter)” value in assay [2] was “Resistant”. Besides, the “Initial MICs (antibiotic)” value in [3] is 4/4 mg/L; in assay [4], 256 mg/L.

For `CO/N=C(\C(=O)N[C@@H]1C(=O)N2C(C(=O)O)=C(COC(C)=O)CS[C@H]12)c1csc(N)n1` [Cefotaxime], the “Results (MIC)” value in assay [1] is “Susceptible”. The diameter in mm in assay [5] was 24 mm. For the same compound, the “Results (diameter)” value in assay [2] is reported as “Susceptible”. In addition, the “Initial MICs (antibiotic)” value in [6] is reported as 128 mg/L; in [4], 4 mg/L.

On to `CO[C@@]1(NC(=O)Cc2cccs2)C(=O)N2C(C(=O)O)=C(COC(N)=O)CS[C@@H]21` [Cefoxitin], for which the “Results (MIC)” value in [1] is reported as “Susceptible”. In addition, in assay [5], the diameter in mm is listed as 11 mm. Moreover, the “Results (diameter)” value in assay [2] was “Susceptible”.

For `CC(C)(O/N=C(\C(=O)N[C@@H]1C(=O)N2C(C(=O)[O-])=C(C[n+]3ccccc3)CS[C@H]12)c1csc(N)n1)C(=O)O` [Ceftazidime], the “MIC (antibiotic)” value in assay [7] is 8 µg/mL; in assay [9] it was 16 µg/mL; in assay [10] it was 4 µg/mL; in assay [11], 8 µg/mL. Besides, in [1], the “Results (MIC)” value is given as “Susceptible”. Further, the diameter in mm in assay [5] worked out at 20 mm. The “nature of the interaction between Cx1 and the antibiotic” value in assay [8] is listed as “synergism”. In addition, the results for the “Initial MICs (antibiotic)” value in [6] and in [4] were 1 mg/L and 8 mg/L, respectively.

Take `C[C@@H]1O[C@@H]1P(=O)(O)O` [Fosfomycin]: the “MIC (antibiotic)” value is 64 µg/mL in [7]; 2 µg/mL in [12]; 16 µg/mL in assay [13]; 128 µg/mL in assay [14]; more than 64 µg/mL in assay [9]; 16 µg/mL in assay [10]. Also, the “MIC (antibiotic)” value in assay [11] was determined as 16 µg/mL. Further, in assay [8], the “nature of the interaction between Cx1 and the antibiotic” value is recorded as “synergism”. The “Results (diameter)” value in [2] is “Susceptible”. This compound also returned a diameter in mm in assay [2] (Table A2, diameter) of 24 mm. Also, in [15], the “Initials MIC (antibiotic)” value is recorded as 8/8 mg/L.

Regarding `CC1(C)S[C@@H]2[C@H](NC(=O)Cc3ccccc3)C(=O)N2[C@H]1C(=O)O` [Penicillin G], the Diameter in assay [16] is reported as 26; in assay [17], 28. For the same compound, the figures for the “MIC (antibiotic)” value in assay [12], in [13] and in [14] were 0.5 µg/mL, 0.5 µg/mL and 4 µg/mL, respectively. Moreover, the “Initials MIC (antibiotic)” value in assay [15] amounted to 1 mg/L.

Values taken from patent publication US8946299B2, “Use of calixarenes associated with an antibiotic in the treatment of bacterial infections” (Universite de Lorraine, priority 2011, dated 2015).
